# Residues, ends and D or L forms follow the SMILES beside them. No end group written: not given here. *: point of attachment. X1 = COc1cccc2c1C(=O)c1c(O)c3c(c(O)c1C2=O)C[C@@](O)(C(=O)CO)C[C@@H]3O[C@H]1C[C@H](NC(=O)CCN2C(=O)CC(*)C2=O)[C@H](O)[C@H](C)O1
# Tests used:
# HFF-1 cells = assay: Cytotoxicity (resazurin) assay in HFF-1 cells; assay type: cell-based, human; conditions: 24 h treatment, different concentrations, lowest viability reached
# HeLa cells [1] = assay: Cytotoxicity (resazurin) assay in HeLa cells; conditions: 24 h; for EC50: 37 °C, 2.5-70 µM, Dox data not shown
# Protocol: For cell viability assay, cells were (15,000 HeLa, 17,000 MCF-7 and 12,000 HFF-1 cells per well) seeded onto a 96-well plate and grown to 80–90% confluency. Cells were incubated with several peptide concentrations in a serum-free growth medium for 24 h under standard growth conditions. For the positive control, cells were treated with 70% EtOH for 7 min. After washing with DPBS, resazurin solution (10% in serum-free media, v/v) was incubated with the cells for 1 h under standard growth conditions. The cell viability was determined relative to untreated cells by measurement of the resorufin product at 595 nm (λex = 550 nm) on a Tecan infinite M200 plate reader (Tecan Group AG, Männedorf, Switzerland).
# Figure 2 (A,B): Cytotoxicity profiles of the peptides in HeLa and HEK-293 cells. Cells were cultured and incubated at pH 7.4 for 24 h with different concentrations of peptide solutions. Untreated cells served as negative control; cells treated with 70% ethanol as positive control. Values from the positive control were subtracted from all data, and the untreated cells were set to 100%; assays were performed with n = 3 in triplicate. (C): Flow cytometry analysis of HeLa or HEK-293 cells after incubating 1 and 10 µM peptide solutions for 30 min at 37 °C; assays were conducted in triplicate n = 3. (D): Confocal laser scanning microscopy analysis of 10 µM CF-labeled peptides after 30 min of incubation in HeLa cells. Green: CF-labeled peptides; blue: Hoechst 33342 nuclear stain; scale bar is 10 µm.
# Figure 5 (A): Cytotoxicity assay using HFF-1 cells. Different PDC concentrations were incubated with the cells for 24 h at 37 °C and a resazurin assay was conducted. (B): Dose-response curves for peptide drug conjugates were obtained using the resazurin assay. For this, HeLa cells were treated with various conjugate concentrations (2.5–70 µM) for 24 h at 37 °C. (C): Quantification of PDC internalization in HeLa cells; 10 µM PDC solutions were incubated with cells for 30 min at 37 °C and cells were inspected using a flow cytometer; assays were conducted in triplicate n = 3.
# HeLa cells [2] = assay: Fluorescence microscopy of intracellular distribution in HeLa cells; assay type: cell-based, human; conditions: 30 min; for intracellular distribution of PDC: 5 µM conjugate, 37 °C, fluorescence microscopy; for intracellular accumulation / uptake pattern: 10 µM CF-labeled peptide, confocal fluorescence microscopy
# Protocol: Cells were seeded into 8-well plates (HeLa cells 35,000 and HFF-1 25,000 cells per well, respectively) and grown to 80–90% confluency. Cells were treated with 10 μM CF- or dox-labeled peptides in a serum-free medium for 30 min at 37 °C. Ten minutes prior to the end of the incubation time, nuclei were stained with Hoechst33342. The peptide solution was removed, and cells were washed five times with PBS and covered with fresh medium including FBS. Microscopic analysis was performed using an inverse confocal TCS SP8 microscope (Leica Microsystems, Wetzlar, Germany), equipped with a 63× oil-immersion objective. Images were recorded with LAS X software (LAS_X_Core_3.7.6_25997, Leica Microsystems, Wetzlar, Germany). For the GUV analysis and the uptake of the peptide-drug conjugates the Keyence fluorescence tabletop microscope BZ-X800E (Keyence, Osaka, Japan), with a 60× oil immersion lens was used. Images were recorded with Keyence software (BZ-800X_Analyzer 1.1.1.8, Keyence, Osaka: Japan) and evaluated with Fiji.
# Figure 6 Fluorescence microscope analysis of 5 µM conjugates after 30 min of incubation at 37 °C in HeLa and HFF-1 cells. Red: peptides coupled to red fluorophore Doxorubicin; blue: Hoechst 33342 nuclear stain; BF: brightfield to identify living cells; scale bar is 20 µm.
# HeLa cells [3] = assay: Cellular uptake by flow cytometry in HeLa cells; assay type: cell-based, human; conditions: 30 min; for cellular uptake: 1 and 10 µM CF-labeled peptide, 37 °C, serum-free medium
# Protocol: (§1) Monolayer cellular uptake was quantified using flow cytometry. Cells were seeded onto a 24-well plate (HeLa: 90,000, HEK293: 100,000 and MCF-7 130,000 cells per well) and grown to 80–90% confluency. Then, cells were incubated with the labeled peptides/conjugates in a serum-free medium at 37 °C for various incubation times, and subsequently washed twice with PBS and detached with indicator-free trypsin resuspended in an indicator-free serum-containing medium. The cell suspension was transferred into a 96-well FACS plate and fluorescence was then measured by a Guava easyCyte flow cytometer (Merck, Darmstadt, Germany).The blue laser was used for all measurements, FSC (1137–1538), SSC (3020–4086), Grn-B (647–875) and Red-B (694–939). Cellular autofluorescence of untreated control cells was subtracted.
# MCF-7 cells = assay: Cell viability (resazurin) assay in MCF-7 cells at pH 7.4 or 6.8; assay type: cell-based, human; conditions: MCF-7 cells cultivated at pH 7.4 or 6.8, 24 h, various concentrations, triplicate n = 3
# Protocol: For pH-dependent studies, the cells were cultivated and incubated at pH 6.8 or 7.4, respectively.
# Figure 1 (A,B): Cell-viability assays using MCF-7 cells. Cells were cultivated at pH 7.4 or pH 6.8, respectively, for 24 h using different concentrations of peptide solutions. […] (C): Cellular uptake of histidine peptides in MCF-7 cells.
# HEK293 cells = assay: Cellular uptake by flow cytometry in HEK293 cells; assay type: cell-based, human; conditions: 1 and 10 µM CF-labeled peptide, 30 min, 37 °C, serum-free medium
# Protocol: as §1
# HEK-293 spheroids = assay: Flow cytometry of HEK-293 spheroids; assay type: cell-based, human; conditions: 10 µM CF-labeled peptides, 30 min or 1 h
# Protocol: For the preparation and seeding of spheroids, cells were washed and trypsinized as described above. Cells were transferred into a fresh 15 mL centrifuge tube and centrifuged for 5 min at 300× g and rt. The supernatant was removed carefully and the pellet was resuspended in an appropriate medium supplemented with FBS. Cells were counted and a cell mixture was prepared, which would be sufficient for 100 drops (3 mL). Within this mixture a total amount of 1.5 × 10^6 cells (HEK-293 and HeLa cells) and 20% (v/v) methylcellulose (1.2 mg/mL) were required. The missing volume was filled up with an appropriate medium containing FBS; 30 μL drops were pipetted into the inverted lid of a petri dish (15,000 cells per drop), the bottom was covered with PBS and spheroids were grown in hanging drops for two or three days at 37 °C and 5% CO2, respectively.
# For flow cytometry studies with tumor spheroids, the spheroids were prepared and grown as described above (4.7). […] After the spheroids started to fall apart, 850 μL of medium with FBS (indicator free) was added and the spheroids were resuspended to generate a homogenous cell suspension; 200 μL of each sample were transferred into a fresh round-bottom 96-well plate and analyzed on a Guava® easyCyte flow cytometer (Merck, Darmstadt, Germany). […]
# [4] = triplicate n = 3, listed as sC18^ΔE
compound,measurement,setting,value
"COc1cccc2c1C(=O)c1c(O)c3c(c(O)c1C2=O)C[C@@](O)(C(=O)CO)C[C@@H]3O[C@H]1C[C@H](N)[C@H](O)[C@H](C)O1.Cl [Dox, doxorubicin hydrochloride, reference compound]",cell viability,HFF-1 cells,72%
same,EC50,HeLa cells [1]; resazurin assay,6.78 µM
CC[C@H](C)[C@H](NC(=O)[C@H](CCCCN)NC(=O)[C@H](CC(N)=O)NC(=O)[C@H](CCCNC(=N)N)NC(=O)[C@H](Cc1ccccc1)NC(=O)[C@H](CCCCN)NC(=O)[C@H](CCCNC(=N)N)NC(=O)[C@H](CC(C)C)NC(=O)[C@H](CCCNC(=N)N)NC(=O)[C@H](CCCCN)NC(=O)[C@H](CCCNC(=N)N)NC(=O)[C@H](CC(C)C)NC(=O)CNC(=O)[C@@H](N)CSC1CC(=O)N(CCC(=O)N[C@H]2C[C@H](O[C@H]3C[C@](O)(C(=O)CO)Cc4c(O)c5c(c(O)c43)C(=O)c3c(OC)cccc3C5=O)O[C@@H](C)[C@H]2O)C1=O)C(=O)N[C@@H](CCCCN)C(=O)N[C@@H](CCC(=O)O)C(=O)N[C@@H](CCCCN)C(N)=O (stereo partly drawn) [PDC-1] (H-C(X1)GLRKRLRKFRNKIKEK-NH2),EC50,HeLa cells [1]; resazurin assay,15.3 µM
same,intracellular distribution of PDC,HeLa cells [2],more fluorescence was also measured within the nuclei
CC[C@H](C)[C@H](NC(=O)[C@H](CCCCN)NC(=O)[C@H](CC(N)=O)NC(=O)[C@H](CCCNC(=N)N)NC(=O)[C@H](Cc1ccccc1)NC(=O)[C@H](CCCCN)NC(=O)[C@H](CCCNC(=N)N)NC(=O)[C@H](CC(C)C)NC(=O)[C@H](CCCNC(=N)N)NC(=O)[C@H](CCCCN)NC(=O)[C@H](CCCNC(=N)N)NC(=O)[C@H](CC(C)C)NC(=O)CNC(=O)[C@@H](N)CSC1CC(=O)N(CCC(=O)N[C@H]2C[C@H](O[C@H]3C[C@](O)(C(=O)CO)Cc4c(O)c5c(c(O)c43)C(=O)c3c(OC)cccc3C5=O)O[C@@H](C)[C@H]2O)C1=O)C(=O)N[C@@H](CCCCN)C(=O)N[C@@H](CCCCN)C(N)=O (stereo partly drawn) [PDC-2] (H-C(X1)GLRKRLRKFRNKIKK-NH2),EC50,HeLa cells [1]; resazurin assay,14.5 µM
same,PDC internalization,"HeLa cells [3]; 5 µM PDC (text; legend of Figure 5C: 10 µM), doxorubicin red fluorescence",enhanced compared to the other two
same,intracellular distribution of PDC,HeLa cells [2],clustering inside the cytosol
COc1cccc2c1C(=O)c1c(O)c3c(c(O)c1C2=O)C[C@@](O)(C(=O)CO)C[C@@H]3O[C@H]1C[C@H](NC(=O)CCN2C(=O)CC(SC[C@H](N)C(=O)NCC(=O)N[C@@H](CC(C)C)C(=O)N[C@@H](CCCNC(=N)N)C(=O)N[C@@H](CCCCN)C(=O)N[C@@H](CCCNC(=N)N)C(=O)N[C@@H](CC(C)C)C(=O)N[C@@H](CCCNC(=N)N)C(=O)N[C@@H](CCCCN)C(=O)N[C@@H](Cc3ccccc3)C(=O)N[C@@H](CCCNC(=N)N)C(=O)N[C@@H](CC(N)=O)C(=O)N[C@@H](CCCCN)C(N)=O)C2=O)[C@H](O)[C@H](C)O1 (stereo partly drawn) [PDC-3] (H-C(X1)GLRKRLRKFRNK-NH2),EC50,HeLa cells [1]; resazurin assay,27 µM
GLRKRLRKFRNKIKEK-NH2 [sC18],cytotoxicity,MCF-7 cells,slightly more toxic at higher concentrations
same,cellular uptake,HEK293 cells; triplicate n = 3,to a little extent
same,cellular uptake,HEK293 cells; [4],highly significant and enhanced internalization
same,accumulation in spheroids,HEK-293 spheroids,most efficient variants
same,cell viability at 100 µM,"HeLa cells [1]; concentration increased up to 100 µM, resazurin assay",≥ 75%
same,concentration up to which no toxic effect was observed,"HeLa cells [1]; pH 7.4, resazurin assay, n = 3 in triplicate",50 µM
same,cellular uptake,HeLa cells [3]; triplicate n = 3,to a little extent
same,cellular uptake,HeLa cells [3]; [4],highly significant and enhanced internalization
same,intracellular accumulation / uptake pattern,HeLa cells [2],far lower compared to the other two novel peptides
same,intracellular accumulation / uptake pattern,HeLa cells [2]; listed as sC18^ΔE,accumulated in a dot-like manner within the cell interior and did not reach the nuclei

# — paper PMC9570898, “Comparing Variants of the Cell-Penetrating Peptide sC18 to Design Peptide-Drug Conjugates” (Molecules, 2022)
